Assays:
[1] = system: TNF-α; test: TNF-α expression in colon tissue (qRT-PCR, ELISA); format: in vivo, mice; conditions: group ES: 2.0% v/v ethanol diet + 2.5 mg sesaminol per day oral, 2 weeks, vs group E; higher than group C
Description: (§1) It has been reported that chronic consumption of an excessive amount of ethanol can induce inflammation associated with tumor formation in colon tissue. Therefore, in order to verify whether oral administration of sesaminol has a preventive effect on ethanol-induced colitis, the expression levels of inflammatory cytokines (TNF-α and IL-6) and chemokine (MCP-1) in the large intestinal lamina propria of the mice in the four groups (groups C, S, E, and ES) were examined by qRT-PCR and ELISA. The NF-κB activity in the mice in the four groups was also examined. NF-κB is a transcription factor that is involved in expression of genes regulating inflammation and is activated by exposure of immune cells to pro-inflammatory factors.
(§2) Total RNA was extracted from colon tissue samples. […]
(§3) A colon tissue sample (100 mg) was homogenized in 1 mL of an M-PER mammalian protein extraction reagent (Pierce) containing a diluent of a protease inhibitor cocktail (Nacalai Tesque, Inc.), and the resulting homogenate was centrifuged at 20,000× g at 4° C. for 15 minutes. The protein concentration of the supernatant was measured with a protein assay reagent (Bio-Rad Laboratories, Inc.), and equal amounts of proteins were used for analysis of the expression levels of TNF-α, IL-6, and MCP-1 by ELISA.

[2] = system: MCP-1; test: MCP-1 expression in colon tissue (qRT-PCR, ELISA); format: in vivo, mice; conditions: group ES: 2.0% v/v ethanol diet + 2.5 mg sesaminol per day oral, 2 weeks, vs group E; higher than group C
Description: as §1, §2, §3

[3] = system: ZO-1; test: Western blotting of ZO-1 in colon tissue; format: in vivo, mice; conditions: group ES: 2.0% v/v ethanol diet + 2.5 mg sesaminol per day oral, 2 weeks, vs group E; lower than group C
Description: (§4) Acetaldehyde, which accumulates during ethanol metabolism, is known to disrupt intestinal tight junctions (TJs) via dissociation of colonic epithelium TJ proteins (ZO-1, occludin, and claudin-1) from the cytoskeleton. […] Therefore, whether oral administration of sesaminol would affect ethanol-induced intestinal barrier dysfunction was examined by analyzing the expression levels of colonic epithelial TJ proteins and the plasma LPS level in the mice in the four groups (groups C, S, E, and ES).
(§5) WB was performed in the same manner as in Example 4 above. The following primary antibodies were used. • Anti-mouse zonula occludens-1 protein (ZO-1) rabbit polyclonal antibody • Anti-mouse occludin rabbit polyclonal antibody • Anti-mouse claudin-1 rabbit polyclonal antibody

[4] = system: claudin-1; test: Western blotting of claudin-1 in colon tissue; format: in vivo, mice; conditions: group ES: 2.0% v/v ethanol diet + 2.5 mg sesaminol per day oral, 2 weeks, vs group E; lower than group C
Description: as §4, §5

[5] = system: LPS; test: Plasma LPS level (LAL assay), 2 weeks; format: in vivo, mice; conditions: group ES: 2.0% v/v ethanol diet + 2.5 mg sesaminol per day oral, vs group E, higher than group C
Description: as §4
(§6) The plasma LPS concentration was measured with a limulus amebocyte lysate (LAL) assay.

[6] = Change in body weight and general observation, 4 weeks; format: in vivo; conditions: groups S and ES (2.5 mg sesaminol per day, oral) vs groups C and E
Method: Ten-week-old C57BL/6NCr male mice were divided into four groups (eight mice per group), i.e., group C, group S, group E, and group ES, and fed daily for 4 weeks in the same manner as in Example 1.
The body weights of the mice in the above four groups (group C, group S, group E, and group ES) were measured every week.

[7] = Body weight and percentage of liver weight relative to body weight, 4 weeks; format: in vivo, mice; conditions: mean ±SD
Description: (§7) The liver function and plasma lipid level in the mice in each group were examined by measuring the percentage of the liver weight relative to the body weight, the triglyceride (TG) concentration in the liver, the aspartate aminotransferase (AST) activity in the plasma, the alanine aminotransferase (ALT) activity in the plasma, and the TG concentration in the plasma of the mice in each group.
The body weight of mice fed for 4 weeks were weighed and dissected under anesthesia. The liver was removed and weighed. The weight ratio between the body weight and the liver of each individual was evaluated.

[8] = TG amount in the liver, 4 weeks; format: in vivo, mice; conditions: mean ±SD
Method: as §7
Each liver was homogenized at 4° C., and TG was extracted according to the product protocol of a reagent kit for TG extraction from tissue (Lipid Droplet Isolation Kit, produced by Cell Biolabs, Inc.). The amounts of TG and protein in each extracted sample were quantified according to the product protocol of each measuring reagent and converted to the TG amount (mg) per protein (g) for evaluation.

[9] = system: ZO-1; test: Immunofluorescence staining of ZO-1 in colon tissue, 4 weeks; format: in vivo, mice; conditions: group ES: 2.0% v/v ethanol diet + 2.5 mg sesaminol per day oral, group E significant decrease
Method: (§8) Next, in order to verify the longer-term effect of oral administration of sesaminol on ethanol-induced intestinal tight junction (TJ) dysfunction and leaky gut, histological analysis of colonic epithelial TJ proteins (ZO-1, Occludin, and Claudin-1) and analysis of the plasma LPS level were performed using the mice in each group (groups C, S, E, and ES) described in Example 7. Histological analysis was performed by immunofluorescence staining with anti-ZO-1, anti-Occludin, and anti-Claudin-1 antibodies, followed by observation under a fluorescence microscope. The Plasma LPS level was measured according to the method described in Example 6.

[10] = system: occludin; test: Immunofluorescence staining of Occludin in colon tissue, 4 weeks; format: in vivo, mice; conditions: group ES: 2.0% v/v ethanol diet + 2.5 mg sesaminol per day oral, group E significant decrease
Method: as §8

[11] = system: claudin-1; test: Immunofluorescence staining of Claudin-1 in colon tissue, 4 weeks; format: in vivo, mice; conditions: group ES: 2.0% v/v ethanol diet + 2.5 mg sesaminol per day oral, group E significant decrease
Method: as §8

[12] = system: LPS; test: Plasma LPS level, 4 weeks; format: in vivo, mice; conditions: group ES: 2.0% v/v ethanol diet + 2.5 mg sesaminol per day oral, vs group E, level similar to groups C and S
Method: as §6, §8

[13] = system: mouse gut microbiota; test: Structural analysis of mouse gut microbiota (16S rRNA sequencing); format: in vivo, mice; conditions: 4 weeks
Method: Additionally, the gut microbiota structures of the mice in each group (groups C, E, S, and ES) were analyzed.
The mouse gut microbiota 16S rRNA sequencing was outsourced to MyMetagenome Co., Ltd.
Immediately after collection, mouse feces was treated with liquid nitrogen and stored at −80° C. While the fecal samples were frozen, treatment was performed, and the extracted nucleic acids were used as samples for sequence analysis. The measurement was performed using a next-generation sequencer (NGS) (MiniSeq, Illumina, K.K.), and the results of 16S rRNA genes (the V1-V2 region) and sequences of 5,000 reads or more from the extracted nucleic acids were used for analysis. For the analysis of bacterial flora structure, raw sequence data processing and well-known sequence data analysis were performed, and the analysis was clustered at a 96% pairwise identity cutoff for 16S reads. Similarity values were assigned to the phylum and genus categories.

[14] = EtOH (2.0% v/v) + Sesaminol group ES
[15] = group S: 2.5 mg sesaminol per day oral, no ethanol, vs group C

With `Oc1cc2c(cc1C1OCC3C(c4ccc5c(c4)OCO5)OCC13)OCO2` (stereo not drawn) [Sesaminol] the “expression level of TNF-α (mRNA by qRT-PCR, protein by ELISA)” value [1] was “significantly lower than those in group E”, the “expression level of MCP-1 (mRNA by qRT-PCR, protein by ELISA)” value [2] was “significantly lower than those in group E” and the “expression level of ZO-1” value [3] was “significantly higher than those in group E”. The “expression level of claudin-1” value [4] was “significantly higher than those in group E”, the “plasma LPS level” value [5] was “significantly lower than that in group E” and the “body-weight changes between the groups” value [6] was “No significant differences”. For the same molecule, the Body weight [7, 14] was 25.4 ± 1.0 g, the Liver/body weight ratio [7, 14] was 4.04 ± 0.41 g/g, % and the Body weight ([7]; Sesaminol (2.5 mg/d) group S) was 25.9 ± 0.8 g. The Liver/body weight ratio ([7]; Sesaminol (2.5 mg/d) group S) was 3.96 ± 0.55 g/g, %, the “Liver TG” value [8, 14] was 51.8 ± 9.5 mg/g of protein and the “Liver TG” value ([8]; Sesaminol (2.5 mg/d) group S) was 38.1 ± 12.4 mg/g of protein. The “protein level of ZO-1 in colon tissue (fluorescence microscope observation)” value [9] was “improvement in all of those levels”, the “protein level of Occludin in colon tissue (fluorescence microscope observation)” value [10] was “improvement in all of those levels” and the “protein level of Claudin-1 in colon tissue (fluorescence microscope observation)” value [11] was “improvement in all of those levels”. For the same molecule, the “plasma LPS concentration” value [12] was “significant and considerable decrease in the plasma LPS concentration compared with group E”, the “bacterial flora structure at the phylum level (abnormalities observed in group E: Tenericutes, Verrucomicrobia, Proteobacteria, Actinobacteria increased)” value ([13]; group ES: 2.0% v/v ethanol diet + 2.5 mg sesaminol per day oral) was “recovered to the same level as group C” and the “relative abundance of the family Lachnospiraceae, the family Ruminococcaceae, and the family Tannerellaceae” value ([13]; group ES: 2.0% v/v ethanol diet + 2.5 mg sesaminol per day oral, group E significant decrease) was “recovered to the same level as that in group C”. The “relative abundance of the family Enterobacteriaceae and the family Streptococcaceae” value ([13]; group ES: 2.0% v/v ethanol diet + 2.5 mg sesaminol per day oral, group E significant increase) was “recovered to the same level as that in group C”, the “obligate anaerobes of the phylum Bacteroidetes and the phylum Firmicutes (short-chain fatty acids-producing bacteria)” value [13, 15] was “increase in obligate anaerobes of the phylum Bacteroidetes and the phylum Firmicutes” and the “short-chain fatty acid-producing bacteria of the family Lachnospiraceae, the family Ruminococcaceae, and the family Tannerellaceae” value [13, 15] was “increased in group S alone compared with group C”.

From patent US20240408053A1, “ENTERITIS-SUPPRESSING COMPOSITION” (KOBE GAKUIN EDUCATIONAL FOUNDATION, priority 2021, published 2024)
